In paper PMC13503280, “A pharmacological modality to sequester homomeric proteins” (Nature Chemical Biology, 2026):

How the values were obtained:
HEK 293 cells = test: Viability measurements, HEK 293 cells; assay type: cell-based; conditions: HEK 293 cells (lack BCL6 expression), 72 h
Description: (§1) Cells were seeded in a transparent-bottom, black 96-well plate, at 15,000 cells per well in sixfold replications. in 90 µl of medium and left to adhere for at least 4 h. The cells were then treated with the respective compound by adding 10 µl of medium–-compound mixture for a final volume of 100 µl in each well. Cell-Titer blue reagent was used to measure viability according to the manufacturer’s instructions. Plate reader measurements were performed on a Tecan Spark Control 10 M fluorescence system.

Mino cells = test: Viability measurements, Mino cells; assay type: cell-based; conditions: Mino cells, 72 h
Description: as §1

Ramos cells = test: Viability measurements, Ramos cells; assay type: cell-based; conditions: Ramos cells, 72 h
Description: as §1

c-Myc = test: WB of c-Myc protein levels in Mino cells; assay type: cell-based; conditions: 20 h
Description: (§2) Cells were incubated with DMSO at 0.1% or with compound in concentrations ranging 10–20,000 nM for 20 h unless indicated differently. Following incubation, lysis was performed in RIPA buffer and the samples were measured for total protein quantification by BCA assay (Thermo Fisher Scientific, 23225). Then, 20–40 μg of each sample was loaded and run on an SDS–PAGE gel, before transferring onto a nitrocellulose membrane using a Trans-Blot Turbo system (Bio-Rad) and blocking using a 5% BSA in TBS-T (w/v) solution for 1 h at room temperature. Incubation with primary antibodies (mouse anti-BCL-6 (sc-7388, Santa Cruz, 1:500; overnight at 4 °C), mouse anti-Keap1 (sc-365626, Santa Cruz, 1:500; overnight at 4 °C), rabbit anti-LDHA (4H18L6, Thermo Fisher, 1:1,000; overnight at 4 °C), mouse anti-NQO2 (sc-271665, Santa Cruz, 1:500; overnight at 4 °C), rabbit anti-c-Myc (5605, Cell Signaling, 1:1,000; overnight at 4 °C) and mouse anti-β-actin (3700, Cell Signaling, 1:1,000; 1 h at room temperature) was performed and then the membranes were washed and incubated with a horseradish-peroxidase-conjugated secondary antibody (mouse 7076/rabbit 7074, Cell Signaling) at room temperature for 1 h. Imaging of the chemiluminescence signal was performed using a ChemiDoc XRS+ instrument (Bio-Rad). Primary band quantifications were normalized against β-actin bands.

BCL6 = biological target: T1, BCL6 (Homo sapiens, UniProt P41182); test: WB of BCL6 levels in Mino cells (soluble/insoluble fraction); assay type: cell-based; conditions: 20 h incubation
T1 construct: in Mino cells, as BCL6 is mostly expressed in B cells; endogenous in cells; host or cells: Mino (ATCC CRL-3000)
Description: Cells were incubated with DMSO at 0.1% or with compound in concentrations ranging 10–20,000 nM for 20 h unless indicated differently. […] Then, 20–40 μg of each sample was loaded and run on an SDS–PAGE gel, before transferring onto a nitrocellulose membrane using a Trans-Blot Turbo system (Bio-Rad) and blocking using a 5% BSA in TBS-T (w/v) solution for 1 h at room temperature. […] Imaging of the chemiluminescence signal was performed using a ChemiDoc XRS+ instrument (Bio-Rad). Primary band quantifications were normalized against β-actin bands.

recombinant Keap1 BTB = biological target: T2, recombinant Keap1 BTB (Homo sapiens, UniProt Q14145, S172A); test: DLS of recombinant Keap1 BTB domain; assay type: biochemical; conditions: 50 μM Keap1 BTB, 50 μM compound, room temperature, over time
T2 construct: The Keap1 BTB domain (48–180) encoding the single substitution S172A was cloned into pET28-bdSumo vector; His–bdSumo (N, cleaved yes); made in house; host or cells: E. coli BL21(DE3)
T2 sequence (Q14145 48-180 S172A): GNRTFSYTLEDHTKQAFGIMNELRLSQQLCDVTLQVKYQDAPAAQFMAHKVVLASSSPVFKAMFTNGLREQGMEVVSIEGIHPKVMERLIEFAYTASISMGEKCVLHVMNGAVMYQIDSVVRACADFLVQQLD
Description: (§3) DLS samples were prepared in the respective protein’s elution buffer, to which 0.01% Tween was added, along with the compound from a DMSO stock to obtain a final DMSO concentration of 2%. Samples were prepared at room temperature and measured at a constant temperature of 25 °C. All samples were passed through 0.1-μm filters and then placed in a clear-bottom black 384-well plate. DLS data were recorded using a DynaproPlate Reader III (Wyatt Technology). Data were processed with the supplied DYNAMICS software.

Keap1 = Keap1 (Homo sapiens, UniProt Q14145); test: WB of Keap1 in OCI-AML2 cells (soluble/insoluble phase); assay type: cell-based; set-up: endogenous in cells; host or cells: OCI-AML2; conditions: OCI-AML2 cells, 20 h treatment; for EC50: read-out: EC50 (Keap1 downregulation, WB)
Chain of Keap1 (Q14145 whole entry): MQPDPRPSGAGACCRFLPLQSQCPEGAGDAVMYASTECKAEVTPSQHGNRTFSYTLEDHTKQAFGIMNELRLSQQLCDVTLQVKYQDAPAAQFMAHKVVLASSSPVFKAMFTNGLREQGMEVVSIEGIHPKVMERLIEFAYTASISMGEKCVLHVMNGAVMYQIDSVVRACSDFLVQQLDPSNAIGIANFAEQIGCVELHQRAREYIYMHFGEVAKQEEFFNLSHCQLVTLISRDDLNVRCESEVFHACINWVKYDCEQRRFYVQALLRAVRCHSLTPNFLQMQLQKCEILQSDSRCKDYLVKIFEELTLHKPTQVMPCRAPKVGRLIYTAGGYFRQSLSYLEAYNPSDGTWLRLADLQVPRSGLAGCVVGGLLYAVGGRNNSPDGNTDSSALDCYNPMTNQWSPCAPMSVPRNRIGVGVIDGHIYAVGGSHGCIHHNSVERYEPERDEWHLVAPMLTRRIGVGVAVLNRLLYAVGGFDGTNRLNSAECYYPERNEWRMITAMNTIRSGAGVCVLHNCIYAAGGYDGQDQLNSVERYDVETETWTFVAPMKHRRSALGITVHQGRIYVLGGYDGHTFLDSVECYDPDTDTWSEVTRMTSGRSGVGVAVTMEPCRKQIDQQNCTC
Description: as §2

recombinant NQO2 = biological target: T3, recombinant NQO2 (Homo sapiens, UniProt P16083); test: DLS of recombinant NQO2; assay type: biochemical; conditions: recombinant NQO2, room temperature, over time
T3 construct: made in house; host or cells: E. coli BL21(DE3)
T3 sequence (P16083 1-231): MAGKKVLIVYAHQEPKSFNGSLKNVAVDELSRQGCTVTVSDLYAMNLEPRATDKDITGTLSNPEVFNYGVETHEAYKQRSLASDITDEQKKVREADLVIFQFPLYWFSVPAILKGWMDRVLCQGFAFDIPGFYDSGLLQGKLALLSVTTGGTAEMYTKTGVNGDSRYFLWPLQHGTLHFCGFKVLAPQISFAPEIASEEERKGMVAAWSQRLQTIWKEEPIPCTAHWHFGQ
Description: as §3

Keap1 and BCL6 = Keap1 and BCL6 (Homo sapiens, UniProt P41182+Q14145); test: WB of Keap1 and BCL6 in Mino cells (hetero-PINCH); assay type: cell-based; set-up: Mino cells that express high levels of BCL6; endogenous in cells; host or cells: Mino; OCI-AML2; conditions: 20 h
Description: as §2

NQO1 expression = test: qPCR for NQO1 expression in OCI-AML2 cells after washout; assay type: cell-based; conditions: OCI-AML2, 250 nM 20 h, from 48 h after treatment
Description: Cells were treated with either DMSO or compound at 250 nM, followed by washing out the treated medium after 20 h and reseeding in fresh medium. Cells were then collected at several time points post washout. Total RNA was extracted using RNeasy mini kit (Qiagen, 74104). […] PCR amplification was carried out in Step-One Plus thermocycler (Applied Biosystems). Relative quantification was performed using standard curves. GAPDH was used for normalization.

Nrf2 = test: WB of Nrf2; assay type: cell-based; conditions: U2OS cells, 20 h compound treatment
OCI-AML2 cells = test: Viability measurements, OCI-AML2 cells; assay type: cell-based; conditions: OCI-AML2, 72 h
Description: as §1

U2OS cells = test: Viability measurements, U2OS cells; assay type: cell-based; conditions: 72 h
Description: as §1

CNC(=O)COc1cc2cc(Nc3nc(N4C[C@H](C)C[C@H](C)C4)ncc3Cl)ccc2n(C)c1=O [BI-3802, reference compound]
effect on viability (HEK 293 cells): no compound affected the viability
effect on viability (Mino cells): no viability effect
effect on viability (Ramos cells): no viability effect
c-Myc protein levels (WB) (c-Myc): no such effect on c-Myc
BCL6 in soluble and insoluble fraction (WB) (BCL6): no accumulation in the insoluble fraction

CC1(C)CCC2(C(=O)NCCCCCCNC(=O)C34CCC(C)(C)CC3C3C(=O)C=C5C6(C)C=C(C#N)C(=O)C(C)(C)C6CCC5(C)C3(C)CC4)CCC3(C)C(C(=O)C=C4C5(C)C=C(C#N)C(=O)C(C)(C)C5CCC43C)C2C1 (stereo not shown) [EL132]
formation of large species (DLS) (recombinant Keap1 BTB): formation of large species over time
EC50 (Keap1): 1020 nM

CC1(C)CCC2(C(=O)NCCOCCNC(=O)C34CCC(C)(C)CC3C3C(=O)C=C5C6(C)C=C(C#N)C(=O)C(C)(C)C6CCC5(C)C3(C)CC4)CCC3(C)C(C(=O)C=C4C5(C)C=C(C#N)C(=O)C(C)(C)C5CCC43C)C2C1 (stereo not shown) [EL147]
Keap1 in soluble and insoluble fraction (WB activity) (Keap1): no activity

CC1(C)CCC2(C(=O)NCCOCCOCCOCCNC(=O)C34CCC(C)(C)CC3C3C(=O)C=C5C6(C)C=C(C#N)C(=O)C(C)(C)C6CCC5(C)C3(C)CC4)CCC3(C)C(C(=O)C=C4C5(C)C=C(C#N)C(=O)C(C)(C)C5CCC43C)C2C1 (stereo not shown) [EL151]
Keap1 in soluble and insoluble fraction (WB activity) (Keap1): no activity

CC1(C)CCC2(C(=O)NCCOCCOCCOCCOCCOCCOCCNC(=O)C34CCC(C)(C)CC3C3C(=O)C=C5C6(C)C=C(C#N)C(=O)C(C)(C)C6CCC5(C)C3(C)CC4)CCC3(C)C(C(=O)C=C4C5(C)C=C(C#N)C(=O)C(C)(C)C5CCC43C)C2C1 (stereo not shown) [EL152]
EC50 (Keap1): 904 nM

CC1(C)CCC2(C(=O)NCC3CCC(CNC(=O)C45CCC(C)(C)CC4C4C(=O)C=C6C7(C)C=C(C#N)C(=O)C(C)(C)C7CCC6(C)C4(C)CC5)CC3)CCC3(C)C(C(=O)C=C4C5(C)C=C(C#N)C(=O)C(C)(C)C5CCC43C)C2C1 (stereo not shown) [EL159]
Keap1 in soluble and insoluble fraction (WB activity) (Keap1): no activity

CC1(C)CCC2(C(=O)NCCCCCCCCNC(=O)C34CCC(C)(C)CC3C3C(=O)C=C5C6(C)C=C(C#N)C(=O)C(C)(C)C6CCC5(C)C3(C)CC4)CCC3(C)C(C(=O)C=C4C5(C)C=C(C#N)C(=O)C(C)(C)C5CCC43C)C2C1 (stereo not shown) [EL163]
Keap1 in soluble and insoluble fraction (WB activity) (Keap1): no activity

CC1(C)CCC2(C(=O)NCCSCCSCCNC(=O)C34CCC(C)(C)CC3C3C(=O)C=C5C6(C)C=C(C#N)C(=O)C(C)(C)C6CCC5(C)C3(C)CC4)CCC3(C)C(C(=O)C=C4C5(C)C=C(C#N)C(=O)C(C)(C)C5CCC43C)C2C1 (stereo not shown) [EL164]
EC50 (Keap1): 434 nM

CC1(C)CCC2(C(=O)NCCN3CCN(CCNC(=O)C45CCC(C)(C)CC4C4C(=O)C=C6C7(C)C=C(C#N)C(=O)C(C)(C)C7CCC6(C)C4(C)CC5)CC3)CCC3(C)C(C(=O)C=C4C5(C)C=C(C#N)C(=O)C(C)(C)C5CCC43C)C2C1 (stereo not shown) [EL165]
formation of large species (DLS) (recombinant Keap1 BTB): formation of large species over time
EC50 (Keap1): 342 nM

CC1(C)CCC2(C(=O)NCC(=O)N3CCN(C(=O)CNC(=O)C45CCC(C)(C)CC4C4C(=O)C=C6C7(C)C=C(C#N)C(=O)C(C)(C)C7CCC6(C)C4(C)CC5)CC3)CCC3(C)C(C(=O)C=C4C5(C)C=C(C#N)C(=O)C(C)(C)C5CCC43C)C2C1 (stereo not shown) [EL174]
Keap1 in soluble and insoluble fraction (WB activity) (Keap1): no activity

CC1(C)CCC2(C(=O)NCCOCCOCCOCCOCCOCCOCCOCCOCCOCCOCCOCCOCCOCCNC(=O)C34CCC(C)(C)CC3C3C(=O)C=C5C6(C)C=C(C#N)C(=O)C(C)(C)C6CCC5(C)C3(C)CC4)CCC3(C)C(C(=O)C=C4C5(C)C=C(C#N)C(=O)C(C)(C)C5CCC43C)C2C1 (stereo not shown) [EL229]
Keap1 in soluble and insoluble fraction (WB activity) (Keap1): reduced Keap1 in the cell’s soluble fraction and induced its accumulation in the insoluble fraction

Cc1ccc(-c2cn3cccc(C)c3n2)cc1S(=O)(=O)N1CCN(C(=O)CCOCCOCCOCCOCCOCCOCCOCCOCCOCCOCCC(=O)N2CCN(S(=O)(=O)c3cc(-c4cn5cccc(C)c5n4)ccc3C)CC2)CC1 [EL241]
formation of larger species (DLS) (recombinant NQO2): little to no effect in polymerizing NQO2

Cc1ccc(-c2cn3cccc(C)c3n2)cc1S(=O)(=O)N1CCN(C(=O)COCC(=O)N2CCN(S(=O)(=O)c3cc(-c4cn5cccc(C)c5n4)ccc3C)CC2)CC1 [EL244]
formation of larger species (DLS) (recombinant NQO2): ability to form larger species in solution

Cc1ccc(-c2cn3cccc(C)c3n2)cc1S(=O)(=O)N1CCN(C(=O)COCCOCC(=O)N2CCN(S(=O)(=O)c3cc(-c4cn5cccc(C)c5n4)ccc3C)CC2)CC1 [EL245]
formation of larger species (DLS) (recombinant NQO2): ability to form larger species in solution

Cc1ccc(-c2cn3cccc(C)c3n2)cc1S(=O)(=O)N1CCN(C(=O)COCCOCCOCC(=O)N2CCN(S(=O)(=O)c3cc(-c4cn5cccc(C)c5n4)ccc3C)CC2)CC1 [EL246]
formation of larger species (DLS) (recombinant NQO2): ability to form larger species in solution

COc1cc(Nc2cc(NCc3cccc(S(=O)(=O)F)c3)ccc2Cl)cc2cc(OCC(=O)NCCOCCOCCOCCOCCOCCOCCOCCOCCOCCOCCOCCOCCOCCN)c(=O)n(C)c12 [compound 23]
Keap1 and BCL6 levels in soluble/insoluble phase (WB) (Keap1 and BCL6): did not induce such effects on either target

CC1(C)CC[C@]2(C(=O)NCCOCCOCCOCCOCCOCCOCCOCCOCCOCCOCCOCCOCCOCCN)CC[C@]3(C)[C@H](C(=O)C=C4[C@@]5(C)C=C(C#N)C(=O)C(C)(C)[C@@H]5CC[C@]43C)[C@@H]2C1 [compound 24]
Keap1 and BCL6 levels in soluble/insoluble phase (WB) (Keap1 and BCL6): did not induce such effects on either target

Bardoxolone [BDX, reference compound]
formation of large species (DLS) (recombinant Keap1 BTB): did not appear
duration of NQO1 upregulation after washout (NQO1 expression): returned closer to its original level
Nrf2 levels (WB) (Nrf2): Nrf2 upregulation
IC50 (OCI-AML2 cells): 1000 nM
IC50 (U2OS cells): 723 nM
